Where two headings read alike, the source gives them in different places.
What was measured:
Acute Toxicity = conditions: rat, in vivo; rats, p.o.; seven days after oral administration
Protocol: Four male rats (SD strain) of six weeks age were used as a group and the LD50 values seven days after oral administration was calculated by Weil's method.

acetic acid writhing = assay: Acetic acid Writhing Method; type: in vivo, mouse (male, ddY strain); conditions: Mus musculus, read-out: Inhibition against Acetic acid writhing ED30
carrageenin edema = assay: Effect on carrageenin edema; type: in vivo, rat (male, SD strain); conditions: Rattus norvegicus, po, read-out: Inhibition against Carrageenin edema ED30
Protocol: (Effect on carrageenin edema) One group consisting of 5 male rats of SD strain and of five weeks age was used in the experiment. Compounds to be tested were given orally and, three hours thereafter, 0.1 ml of 0.5% λ-carrageenin was injected at the right hind paw subcutaneously. After three hours, volume of the right hind paw was measured using a plethysmometer, then the volume of the hind paw before the carrageenin injection was deducted from the above measured value to obtain the degree of swelling (in ml), the average swelling inhibition rate of the groups treated with the compounds as compared with the control group was calculated and, using a method of least squares, ED30 was determined.

[1] = Action for formation of ulcer; design: species or system rat (male, SD strain); conditions: rat, in vivo, po
Protocol: (Action for formation of ulcer)
Male rats (SD strain) of five weeks age were fasted for 24 hours and the test compound (as a suspension in CMC; 0.5% concentration) was given orally at a dose of 1 ml/100 g body weight. After 24 hours, 5% pontamine sky blue (0.5 ml) was injected intravenously and, ten minutes thereafter, the rats were killed by anesthetizing with ether and their stomachs were removed therefrom. […] When at least one ulcer was observed, the ulcer formation was decided to be positive and, according to a Weil's method (four rats per group), UD50 (50% ulcer-forming dose) was determined.

[2] = mice, i.p. (head), 0.6% acetic acid i.p. 3 h after oral compound (method), writhings over 20 min
[3] = rats, p.o., compound 3 h before carrageenin, paw volume after 3 h

Structure (SMILES)	LD50 at 168 h (Acute Toxicity) [mg/kg]	ED30 (acetic acid writhing; [2]) [mg/kg]	ED30 (carrageenin edema; [3]) [mg/kg]	TD50 at 24 h [1] [mg/kg]	ED30 (acetic acid writhing; po) [mg/kg]	ED30 (carrageenin edema; 3 h) [mg/kg]	TD50 at 24 h ([1]; rats, p.o., 24 h fasted, stomach observed 24 h after dosing, read-out: UD50 (50% ulcer-forming dose)) [mg/kg]
CC(O)C=Cc1ccc2c(c1)Cc1ccccc1-2 (stereo not shown) [Example 2, 4-(2-fluorenyl)-3-buten-2-ol]	1680	1.8	28.3	90			
CC(=O)CCc1ccc2c(c1)Cc1ccccc1-2 [Example 3, 4-(2-fluorenyl)-butan-2-one]	> 2000	37.2	12.5	182			
CC(O)CCc1ccc2c(c1)Cc1ccccc1-2 (stereo not shown) [Example 9, 4-(2-Fluorenyl)-butan-2-ol]	> 2000	18.4	17.3	68.4			
COc1ccc2c(c1)c(CC(=O)O)c(C)n2C(=O)c1ccc(Cl)cc1 [Indomethacin, reference compound]	29				2.3	7.1	4
